Legend:
[1] = system: ISC-enriched organoids; experiment: Primary screen, 384-well 2.5-D organoid differentiation (ENR+CD, 6 days): basal lysozyme secretion (LYZ.NS); format: cell-based, murine; settings: primary screen; for Dose.FC.LYZ.NS: FC vs plate median; for Z.LYZ.NS: standard z score; for SSMD.LYZ.NS: strictly standardized mean difference
Source text: (§1) High-throughput screening.

[2] = system: ISC-enriched organoids; experiment: Primary screen, 384-well 2.5-D organoid differentiation (ENR+CD, 6 days): carbachol-induced lysozyme secretion (LYZ.S); format: cell-based, murine; settings: primary screen; for Dose.FC.LYZ.S: FC vs plate median; for Z.LYZ.S: standard z score; for SSMD.LYZ.S: strictly standardized mean difference
Source text: as §1

[3] = system: ISC-enriched organoids; experiment: Primary screen, 384-well 2.5-D organoid differentiation (ENR+CD, 6 days, Target Selective Inhibitor Library, vs whole-plate median): ATP (CellTiter-Glo 3D, CTG); settings: primary screen; for Dose.FC.CTG: FC vs plate median; for Z.CTG: standard z score; for SSMD.CTG: strictly standardized mean difference
[4] = 1st of the 4 dose lines of the treatment (dose not given)
[5] = 2nd of the 4 dose lines of the treatment (dose not given)
[6] = 3rd of the 4 dose lines of the treatment (dose not given)
[7] = 4th of the 4 dose lines of the treatment (dose not given)

Compound | SSMD.LYZ.NS [1, 4] | SSMD.LYZ.NS [1, 5] | SSMD.LYZ.NS [1, 6] | SSMD.LYZ.NS [1, 7] | Z.LYZ.S [2, 4] | Z.LYZ.S [2, 5] | Z.LYZ.S [2, 6] | Z.LYZ.S [2, 7] | SSMD.LYZ.S [2, 4] | SSMD.LYZ.S [2, 5] | SSMD.LYZ.S [2, 6] | SSMD.LYZ.S [2, 7] | Z.CTG ([3]; Dose 0.08 uM) | Z.CTG ([3]; Dose 0.40 uM) | Z.CTG ([3]; Dose 2.00 uM) | Z.CTG ([3]; Dose 10.00 uM) | SSMD.CTG [3, 4] | SSMD.CTG [3, 5] | SSMD.CTG [3, 6] | SSMD.CTG [3, 7] | also measured
Cc1cnc(NC(=O)Nc2cc(Br)c(C)cc2OC[C@@H]2CNCCO2)cn1 [LY2603618] | −0.044 | −0.697 | −1.609 | −1.826 | 0.056 | −0.953 | −1.737 | −2.300 | 0.065 | −0.885 | −1.421 | −1.890 | −0.010 | −0.567 | −0.946 | −2.347 | −0.013 | −0.880 | −1.281 | −2.490 | Dose.FC.LYZ.NS ([1]; Dose 0.08 uM): −0.005 log 2 fold change; Z.LYZ.NS ([1]; Dose 0.08 uM): −0.046; Dose.FC.LYZ.NS ([1]; Dose 0.40 uM): −0.091 log 2 fold change; Z.LYZ.NS ([1]; Dose 0.40 uM): −0.791; Dose.FC.LYZ.NS ([1]; Dose 2.00 uM): −0.193 log 2 fold change; Z.LYZ.NS ([1]; Dose 2.00 uM): −1.685; Dose.FC.LYZ.NS ([1]; Dose 10.00 uM): −0.233 log 2 fold change; Z.LYZ.NS ([1]; Dose 10.00 uM): −2.026; Dose.FC.LYZ.S ([2]; Dose 0.08 uM): 0.009 log 2 fold change; Dose.FC.LYZ.S ([2]; Dose 0.40 uM): −0.147 log 2 fold change; Dose.FC.LYZ.S ([2]; Dose 2.00 uM): −0.269 log 2 fold change; Dose.FC.LYZ.S ([2]; Dose 10.00 uM): −0.356 log 2 fold change; Dose.FC.CTG ([3]; Dose 0.08 uM): −0.004 log 2 fold change; Dose.FC.CTG ([3]; Dose 0.40 uM): −0.238 log 2 fold change; Dose.FC.CTG ([3]; Dose 2.00 uM): −0.396 log 2 fold change; Dose.FC.CTG ([3]; Dose 10.00 uM): −0.983 log 2 fold change
Cc1cc(Nc2cc(CN3CCOCC3)c3nc(C)c(Cc4ccc(Cl)cc4F)n3n2)n[nH]1 [LY2784544] | 0.395 | 0.037 | 0.582 | −2.015 | 0.794 | 0.498 | 0.737 | −2.373 | 0.911 | 0.595 | 0.492 | −2.074 | 0.259 | 0.148 | 0.433 | −1.984 | 0.378 | 0.135 | 0.500 | −1.283 | Dose.FC.LYZ.NS ([1]; Dose 0.08 uM): 0.132 log 2 fold change; Z.LYZ.NS ([1]; Dose 0.08 uM): 1.152; Dose.FC.LYZ.NS ([1]; Dose 0.40 uM): 0.004 log 2 fold change; Z.LYZ.NS ([1]; Dose 0.40 uM): 0.033; Dose.FC.LYZ.NS ([1]; Dose 2.00 uM): 0.068 log 2 fold change; Z.LYZ.NS ([1]; Dose 2.00 uM): 0.591; Dose.FC.LYZ.NS ([1]; Dose 10.00 uM): −0.280 log 2 fold change; Z.LYZ.NS ([1]; Dose 10.00 uM): −2.439; Dose.FC.LYZ.S ([2]; Dose 0.08 uM): 0.123 log 2 fold change; Dose.FC.LYZ.S ([2]; Dose 0.40 uM): 0.077 log 2 fold change; Dose.FC.LYZ.S ([2]; Dose 2.00 uM): 0.114 log 2 fold change; Dose.FC.LYZ.S ([2]; Dose 10.00 uM): −0.367 log 2 fold change; Dose.FC.CTG ([3]; Dose 0.08 uM): 0.108 log 2 fold change; Dose.FC.CTG ([3]; Dose 0.40 uM): 0.062 log 2 fold change; Dose.FC.CTG ([3]; Dose 2.00 uM): 0.181 log 2 fold change; Dose.FC.CTG ([3]; Dose 10.00 uM): −0.831 log 2 fold change
O=C(C[S+]([O-])Cc1ccco1)NC/C=C\COc1cc(CN2CCCCC2)ccn1 (centres unmarked) [Lafutidine] | 0.285 | 0.064 | 0.359 | 0.581 | 0.339 | 0.506 | 0.491 | −0.093 | 0.331 | 0.460 | 0.503 | −0.111 | 0.363 | 0.346 | 0.329 | −0.235 | 0.452 | 0.476 | 0.505 | −0.249 | 
Nc1cccc2c1CN(C1CCC(=O)NC1=O)C2=O (centres unmarked) [Lenalidomide (CC-5013)] | 1.215 | 0.674 | 0.472 | −0.318 | 0.639 | 1.137 | 0.162 | −0.290 | 0.593 | 0.873 | 0.193 | −0.298 | 0.110 | −0.037 | −0.596 | −0.754 | 0.169 | −0.049 | −0.710 | −0.802 | Dose.FC.LYZ.NS ([1]; Dose 0.08 uM): 0.147 log 2 fold change; Z.LYZ.NS ([1]; Dose 0.08 uM): 1.283; Dose.FC.LYZ.NS ([1]; Dose 0.40 uM): 0.099 log 2 fold change; Z.LYZ.NS ([1]; Dose 0.40 uM): 0.863; Dose.FC.LYZ.NS ([1]; Dose 2.00 uM): 0.071 log 2 fold change; Z.LYZ.NS ([1]; Dose 2.00 uM): 0.615; Dose.FC.LYZ.NS ([1]; Dose 10.00 uM): −0.041 log 2 fold change; Z.LYZ.NS ([1]; Dose 10.00 uM): −0.360; Dose.FC.LYZ.S ([2]; Dose 0.08 uM): 0.099 log 2 fold change; Dose.FC.LYZ.S ([2]; Dose 0.40 uM): 0.176 log 2 fold change; Dose.FC.LYZ.S ([2]; Dose 2.00 uM): 0.025 log 2 fold change; Dose.FC.LYZ.S ([2]; Dose 10.00 uM): −0.045 log 2 fold change; Dose.FC.CTG ([3]; Dose 0.08 uM): 0.046 log 2 fold change; Dose.FC.CTG ([3]; Dose 0.40 uM): −0.016 log 2 fold change; Dose.FC.CTG ([3]; Dose 2.00 uM): −0.250 log 2 fold change; Dose.FC.CTG ([3]; Dose 10.00 uM): −0.316 log 2 fold change

Reference: patent publication US20230398130A1, “METHODS AND COMPOSITIONS FOR DIFFERENTIATING STEM CELLS” (Massachusetts Institute of Technology, priority 2020, published 2023)
